The numbers were not newly measured in patent publication US20110311626A1, “CONTROLLED RELEASE COMPOSITIONS COMPRISING ANTI-CHOLINERGIC DRUGS” (priority 2009, published 2011), which cites them from elsewhere.

Molecules are shown by their SMILES.

The conditions of this series: currently marketed formulation, blood plasma, after administration.

For the molecule `CCN(CC)CCOC(=O)C1(C2CCCCC2)CCCCC1` [dicyclomine, bicyclohexyl-1-carboxylic acid, 2-(diethylamino) ethyl ester], the Tmax is 1.5 to 3 h.
